Source: ChEMBL document CHEMBL4418910, “Methods for categorising cancer such as breast cancer” (2018)

What was measured:
[1] = molecular target: T1, Serine/threonine-protein kinase LMTK3 (Homo sapiens) (UniProt Q96Q04); experiment: Inhibition of N-terminal GST tag LMTK3 kinase domain (133 to 415 amino acids) (unknown origin) expressed in insect cells incubated for 120 mins by […] fluorescent detection based CisBio KinEASE STK-S1 kit based assay relative to untreated control
T1 sequence (whole entry): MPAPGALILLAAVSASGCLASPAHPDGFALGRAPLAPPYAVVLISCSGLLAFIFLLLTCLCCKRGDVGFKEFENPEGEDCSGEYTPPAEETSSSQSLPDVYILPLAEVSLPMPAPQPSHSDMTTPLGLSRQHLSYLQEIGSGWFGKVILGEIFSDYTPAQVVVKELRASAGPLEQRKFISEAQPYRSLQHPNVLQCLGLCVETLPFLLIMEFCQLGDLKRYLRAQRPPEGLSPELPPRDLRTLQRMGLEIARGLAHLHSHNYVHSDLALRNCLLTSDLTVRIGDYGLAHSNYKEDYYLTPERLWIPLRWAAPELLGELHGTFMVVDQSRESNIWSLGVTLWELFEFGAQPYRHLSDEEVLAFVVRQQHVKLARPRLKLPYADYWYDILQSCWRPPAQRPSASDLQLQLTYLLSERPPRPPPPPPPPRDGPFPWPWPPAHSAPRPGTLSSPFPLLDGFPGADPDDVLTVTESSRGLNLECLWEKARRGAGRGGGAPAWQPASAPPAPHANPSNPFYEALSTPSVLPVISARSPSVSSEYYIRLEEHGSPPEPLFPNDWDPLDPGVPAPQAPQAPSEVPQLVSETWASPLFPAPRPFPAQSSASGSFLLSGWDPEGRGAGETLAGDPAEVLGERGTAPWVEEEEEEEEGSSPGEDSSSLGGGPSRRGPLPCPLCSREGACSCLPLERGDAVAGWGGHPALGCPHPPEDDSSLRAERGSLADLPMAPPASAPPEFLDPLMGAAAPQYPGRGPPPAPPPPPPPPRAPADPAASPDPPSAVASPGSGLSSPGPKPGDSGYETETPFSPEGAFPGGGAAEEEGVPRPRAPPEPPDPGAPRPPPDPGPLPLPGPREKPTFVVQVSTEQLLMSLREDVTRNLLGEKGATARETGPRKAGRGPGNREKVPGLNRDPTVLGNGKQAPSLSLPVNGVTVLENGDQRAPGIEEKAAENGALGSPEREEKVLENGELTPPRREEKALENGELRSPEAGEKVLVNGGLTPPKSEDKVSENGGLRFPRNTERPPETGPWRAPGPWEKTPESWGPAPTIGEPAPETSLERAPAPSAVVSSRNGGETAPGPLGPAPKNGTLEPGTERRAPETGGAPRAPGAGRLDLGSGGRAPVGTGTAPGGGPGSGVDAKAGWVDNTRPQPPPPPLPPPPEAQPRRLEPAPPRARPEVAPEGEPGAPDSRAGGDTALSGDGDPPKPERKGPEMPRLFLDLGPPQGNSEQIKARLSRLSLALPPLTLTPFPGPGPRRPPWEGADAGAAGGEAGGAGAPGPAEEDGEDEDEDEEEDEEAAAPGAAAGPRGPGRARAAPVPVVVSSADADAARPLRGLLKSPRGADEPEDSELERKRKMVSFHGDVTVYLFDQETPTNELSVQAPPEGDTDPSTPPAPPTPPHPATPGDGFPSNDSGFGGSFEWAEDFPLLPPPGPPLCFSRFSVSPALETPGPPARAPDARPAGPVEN

[2] = molecular target: T2, Serine/threonine-protein kinase LMTK3 (Homo sapiens, UniProt Q96Q04); experiment: Inhibition of N-terminal GST tag LMTK3 kinase domain (133 to 415 amino acids) (unknown origin) expressed in insect cells incubated for 120 mins by […] fluorescent detection based CisBio KinEASE STK-S1 kit based assay
T2 sequence (Q96Q04 whole entry): T1 sequence (whole entry)

Row | SMILES | inhibition [1] | IC50 [2]
1 | CN[C@@H]1C[C@H]2O[C@@](C)([C@@H]1OC)n1c3ccccc3c3c4c(c5c6ccccc6n2c5c31)C(=O)NC4 | 109% | 
2 | CCCCCCOC(=O)[C@]1(O)C[C@H]2O[C@]1(C)n1c3ccccc3c3c4c(c5c6ccccc6n2c5c31)C(=O)NC4 | 98.7% | 117 pM
3 | CN(C)CCCn1cc(C2=C(c3c[nH]c4ccccc34)C(=O)NC2=O)c2ccccc21 [GF-109203] | 108% | 132 pM
4 | COC(=O)[C@@]1(O)C[C@H]2O[C@]1(C)n1c3ccccc3c3c4c(c5c6ccccc6n2c5c31)C(=O)NC4 | 98.9% | 
